Test results from paper PMC4306533, “Distinct Features of Cap Binding by eIF4E1b Proteins” (Journal of Molecular Biology, 2015).

What was measured:
[1] = molecular target: T1, XeIF4E1a (Xenopus laevis, UniProt P48597); test: time-synchronized fluorescence titration of cap analogue binding; conditions: for ΔΔG^o + glycerol XeIF4E1a / ΔΔG^o − glycerol XeIF4E1a: change relative to m^7GTP; for ΔΔG^o + glycerol XeIF4E1a / Kas + glycerol XeIF4E1a: 10% glycerol; for ΔΔG^o − glycerol XeIF4E1a: without glycerol; for Kas + glycerol XeIF4E1a / Kas − glycerol XeIF4E1a: equilibrium association constant; for Kas − glycerol XeIF4E1a: buffer without glycerol
T1 construct: made in house; host or cells: E. coli Rosetta2(DE3)
T1 sequence (P48597 whole entry): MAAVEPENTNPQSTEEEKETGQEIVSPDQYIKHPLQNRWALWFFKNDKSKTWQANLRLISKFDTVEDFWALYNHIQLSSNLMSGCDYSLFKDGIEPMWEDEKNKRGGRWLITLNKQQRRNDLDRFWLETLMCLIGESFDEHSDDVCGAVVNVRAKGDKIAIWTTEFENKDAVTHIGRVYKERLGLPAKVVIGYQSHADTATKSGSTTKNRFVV
Description: (§1) The time-synchronized fluorescence titration method, widely used to determine the affinity constants of cap–eIF4E complexes [[20,22–26]], measures the quenching of the intrinsic fluorescence of tryptophan residues due to cap binding (Fig. S2). Knowledge of the equilibrium association constant Kas enables the calculation of the free-energy changes involved in the interaction between eIF4E and ligand, according to the standard equation ΔG° = − RTlnKas.
(§2) For human eIF4E1a and eIF4E1b and also for Xenopus eIF4E1a and its mutated forms, measurements were carried out using 0.1 μM protein in 50 mM Hepes/KOH (pH 7.2), 134.5 mM KCl, 0.5 mM EDTA and 1 mM DTT. For Xenopus eIF4E1b(ΔN27), the concentration was 0.2 μM and glycerol was added to the buffer to 10% (v/v) final concentration. […] Fluorescence of measured samples was excited at 280 nm (2.5 nm bandwidth) and detected at 337 nm or 330 nm (4 nm bandwidth), thus reducing the signal originated from the free cap analogues. Measurements were carried out on a LS-55 spectrofluorometer (Perkin Elmer Co.) using freshly prepared proteins, and the fluorescence intensities were corrected for sample dilution and the inner filter effect.
(§3) Equilibrium association constants (Kas) were determined by fitting the theoretical dependence of fluorescence intensity on the total concentration of the cap analogue to the experimental data points, according to the equation described previously (see Ref. [22] and Fig. S2c).
(§4) The final Kas was calculated as a weighted average of 2–6 independent titrations with the weights taken as the reciprocal of the numerical standard deviation squared. Numerical, nonlinear least-squares regression analysis was performed using Origin 6.0 (Microcal Software Inc.). Obtained association constants were used to determine the Gibbs free energy according to the standard equation ΔG° = − RTlnKas.

[2] = tested on: XeIF4E1a; test: as above; set-up: species or system Xenopus laevis; conditions: without glycerol
Description: as §1, §2, §3, §4

[3] = molecular target: T2, heIF4E1a (Homo sapiens, UniProt P06730); test: as above; conditions: for ΔΔG^o − glycerol heIF4E1a: change relative to m^7GTP, without glycerol; for Kas − glycerol heIF4E1a: equilibrium association constant, buffer without glycerol
T2 construct: made in house; host or cells: E. coli Rosetta2(DE3)
T2 sequence (P06730 whole entry): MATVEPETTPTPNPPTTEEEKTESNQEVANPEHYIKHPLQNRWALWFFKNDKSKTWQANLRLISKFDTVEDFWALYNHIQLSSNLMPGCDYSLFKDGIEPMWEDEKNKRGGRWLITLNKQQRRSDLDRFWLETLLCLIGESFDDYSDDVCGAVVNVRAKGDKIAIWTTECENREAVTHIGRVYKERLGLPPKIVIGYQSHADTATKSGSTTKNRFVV
Description: as §1, §2, §3, §4

[4] = molecular target: T3, heIF4E1b (Homo sapiens, UniProt A6NMX2); test: as above; conditions: for ΔΔG^o − glycerol heIF4E1b: change relative to m^7GTP, without glycerol; for Kas − glycerol heIF4E1b: equilibrium association constant, buffer without glycerol
T3 construct: made in house; host or cells: E. coli Rosetta2(DE3)
T3 sequence (A6NMX2 1-242): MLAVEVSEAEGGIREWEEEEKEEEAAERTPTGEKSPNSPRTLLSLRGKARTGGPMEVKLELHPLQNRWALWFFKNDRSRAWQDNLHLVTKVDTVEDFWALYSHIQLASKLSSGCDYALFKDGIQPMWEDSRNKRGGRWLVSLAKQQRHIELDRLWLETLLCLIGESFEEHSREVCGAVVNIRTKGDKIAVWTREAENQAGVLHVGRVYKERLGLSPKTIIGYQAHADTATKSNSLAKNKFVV
Description: as §1, §2, §3, §4

[5] = tested on: heIF4E1b; test: as above; set-up: species or system human; conditions: without glycerol
Description: as §1, §2, §3, §4

[6] = tested on: XeIF4E1bΔN27; test: as above; set-up: species or system Xenopus laevis; conditions: for Ratio Kas (X4E1a) to Kas (X4E1bΔN27) / ΔΔG^o + glycerol XeIF4E1bΔN27 / Kas + glycerol XeIF4E1bΔN27: 10% glycerol; for ΔΔG^o + glycerol XeIF4E1bΔN27: change relative to m^7GTP; for Kas + glycerol XeIF4E1bΔN27: equilibrium association constant
Description: as §1, §2, §3, §4

[7] = molecular target: T4, X4E1a1 (E101S) (Xenopus laevis, UniProt P48597, E101S); test: fluorescence titration, XeIF4E1a mutant; format: binding; conditions: mutant (E101S) of XeIF4E1a
T4 construct: made in house; host or cells: E. coli Rosetta2(DE3)
T4 sequence (P48597 whole entry E101S): as the sequence (P48597 whole entry) above, with E101S counted along it
Description: (§5) We tested the effect on cap-binding activity of these positions in the fluorescence assay with six mutated recombinant versions of Xenopus eIF4E1a (Fig. S4). The amino acids were introduced in XeIF4E1a sequentially in the order: E101S/K102R/S195A/M82S/T206L/T207S (numbering of the XeIF4E1a sequence is shifted backward by 4 amino acids relative to XeIF4E1b). […] The biggest contribution to the weaker cap binding of XeIF4E1a, in each case about 20%, resulted from changing Glu101 to Ser and Thr206 to Leu coupled with Thr207 to Ser, with the remaining mutations having only minor effects. […] Glu101 is a solvent-accessible amino acid and is proximal to Trp98 in the S3-S4 loop. […] Attenuation of the cap-binding affinity of XeIF4E1a resulting from mutating Thr206 and Thr207 is consistent with our results mentioned above showing significant influence of C-terminal loop residues on binding phosphate and the second nucleotide.
(§6) For human eIF4E1a and eIF4E1b and also for Xenopus eIF4E1a and its mutated forms, measurements were carried out using 0.1 μM protein in 50 mM Hepes/KOH (pH 7.2), 134.5 mM KCl, 0.5 mM EDTA and 1 mM DTT. For Xenopus eIF4E1b(ΔN27), the concentration was 0.2 μM and glycerol was added to the buffer to 10% (v/v) final concentration. […] The gradually increasing concentration of cap analogue quenches protein fluorescence without shifting the spectrum maximum, while at high concentrations, the fluorescence signal of free cap analogue dominates over the fluorescence from other solution components including free eIF4E and eIF4E in complex with cap (Fig. S2a). Fluorescence of measured samples was excited at 280 nm (2.5 nm bandwidth) and detected at 337 nm or 330 nm (4 nm bandwidth), thus reducing the signal originated from the free cap analogues. Measurements were carried out on a LS-55 spectrofluorometer (Perkin Elmer Co.) using freshly prepared proteins, and the fluorescence intensities were corrected for sample dilution and the inner filter effect.
(§7) Equilibrium association constants (Kas) were determined by fitting the theoretical dependence of fluorescence intensity on the total concentration of the cap analogue to the experimental data points, according to the equation described previously (see Ref. [22] and Fig. S2c). […] Along with Kas and the concentration of the active protein [P0^act], other parameters such as fL and ∆f = fPact − fPL are also gained from the fit, where fL represents the fluorescence efficiency of free cap analogue and ∆f represents the difference between the fluorescence efficiencies of the apo-protein and the complex (Fig. S2c).
as §4

[8] = molecular target: T5, X4E1a1’ (K102R) (Xenopus laevis, UniProt P48597, K102R); test: fluorescence titration, XeIF4E1a mutant; format: binding; conditions: mutant (K102R) of XeIF4E1a
T5 construct: made in house; host or cells: E. coli Rosetta2(DE3)
T5 sequence (P48597 whole entry K102R): as the sequence (P48597 whole entry) above, with K102R counted along it
Description: as §5, §6, §7, §4

[9] = molecular target: T6, X4E1a2 (E101S/K102R) (Xenopus laevis, UniProt P48597, E101S/K102R); test: fluorescence titration, XeIF4E1a mutant; format: binding; conditions: mutant (E101S/K102R) of XeIF4E1a
T6 construct: made in house; host or cells: E. coli Rosetta2(DE3)
T6 sequence (P48597 whole entry E101S/K102R): as the sequence (P48597 whole entry) above, with E101S, K102R counted along it
Description: as §5, §6, §7, §4

[10] = molecular target: T7, X4E1a3 (E101S/K102R/S195A) (Xenopus laevis, UniProt P48597, E101S/K102R/S195A); test: fluorescence titration, XeIF4E1a mutant; format: binding; conditions: mutant (E101S/K102R/S195A) of XeIF4E1a
T7 construct: made in house; host or cells: E. coli Rosetta2(DE3)
T7 sequence (P48597 whole entry E101S/K102R/S195A): as the sequence (P48597 whole entry) above, with E101S, K102R, S195A counted along it
Description: as §5, §6, §7, §4

[11] = molecular target: T8, X4E1a4 (E101S/K102R/S195A/M82S) (Xenopus laevis, UniProt P48597, E101S/K102R/M82S/S195A); test: fluorescence titration, XeIF4E1a mutant; format: binding; conditions: mutant (E101S/K102R/S195A/M82S) of XeIF4E1a
T8 construct: made in house; host or cells: E. coli Rosetta2(DE3)
T8 sequence (P48597 whole entry M82S/E101S/K102R/S195A): as the sequence (P48597 whole entry) above, with M82S, E101S, K102R, S195A counted along it
Description: as §5, §6, §7, §4

[12] = molecular target: T9, X4E1a6 (E101S/K102R/S195A/M82S/T206L/T207S) (Xenopus laevis, UniProt P48597, E101S/K102R/M82S/S195A/T206L/T207S); test: fluorescence titration, XeIF4E1a mutant; format: binding; conditions: mutant (E101S/K102R/S195A/M82S/T206L/T207S) of XeIF4E1a
T9 construct: made in house; host or cells: E. coli Rosetta2(DE3)
T9 sequence (P48597 whole entry M82S/E101S/K102R/S195A/T206L/T207S): as the sequence (P48597 whole entry) above, with M82S, E101S, K102R, S195A, T206L, T207S counted along it
Description: as §5, §6, §7, §4

ΔΔG^o + glycerol XeIF4E1a [1] [kcal/mol]	ΔΔG^o − glycerol XeIF4E1a [1] [kcal/mol]	Kas + glycerol XeIF4E1a [1] [μM^− 1]	Kas − glycerol XeIF4E1a [1] [μM^− 1]	Ratio Kas (h4E1a) to Kas (X4E1a) [2]	ΔΔG^o − glycerol heIF4E1a [3] [kcal/mol]	Kas − glycerol heIF4E1a [3] [μM^− 1]	ΔΔG^o − glycerol heIF4E1b [4] [kcal/mol]	Kas − glycerol heIF4E1b [4] [μM^− 1]	Ratio Kas (h4E1a) to Kas (h4E1b) [5]	Ratio Kas (X4E1a) to Kas (X4E1bΔN27) [6]	ΔΔG^o + glycerol XeIF4E1bΔN27 [6] [kcal/mol]	Kas + glycerol XeIF4E1bΔN27 [6] [μM^− 1]	Kas X4E1a1 [7] [µM⁻¹]	Kas X4E1a1’ [8] [µM⁻¹]	Kas X4E1a2 [9] [µM⁻¹]	Kas X4E1a3 [10] [µM⁻¹]	Kas X4E1a4 [11] [µM⁻¹]	Kas X4E1a6 [12] [µM⁻¹]	SMILES	other results
0.900 ± 0.035	0.984 ± 0.050	4.97 ± 0.22	7.89 ± 0.57	1.65	0.965 ± 0.045	13.04 ± 0.31	0.639 ± 0.045	7.34 ± 0.34	1.78	2.20	0.722 ± 0.059	2.26 ± 0.20	7.14 ± 0.63	7.38 ± 0.18	7.132 ± 0.088	6.23 ± 0.17	8.21 ± 0.51	4.41 ± 0.16	CCn1c[n+]([C@@H]2O[C@H](COP(=O)(O)OP(=O)(O)OP(=O)(O)O)[C@@H](O)[C@H]2O)c2nc(N)[nH]c(=O)c21 [et^7GTP]	fold decrease of association constant relative to m^7GTP ([1]; N^7-methyl replaced by ethyl): approximately 5 fold; fold decrease of association constant relative to m^7GTP ([3]; N^7-methyl replaced by ethyl): approximately 5 fold; fold decrease of association constant relative to m^7GTP ([4]; N^7-methyl replaced by ethyl): 3 fold; fold decrease of association constant relative to m^7GTP ([6]; N^7-methyl replaced by ethyl): 3 fold
2.844 ± 0.042	2.897 ± 0.051	0.176 ± 0.011	0.295 ± 0.021	1.22	3.052 ± 0.045	0.362 ± 0.008	2.557 ± 0.041	0.272 ± 0.009	1.33	0.70	2.00 ± 0.11	0.253 ± 0.046	0.350 ± 0.015	0.268 ± 0.012	0.306 ± 0.046	0.193 ± 0.019	0.317 ± 0.054	0.185 ± 0.012	CN(C)c1nc2c(c(=O)[nH]1)[n+](C)cn2[C@@H]1O[C@H](COP(=O)(O)OP(=O)(O)OP(=O)(O)O)[C@@H](O)[C@H]1O [m^2,2,7GTP]	–
–	–	230 ± 31	378 ± 44	1.44	–	547 ± 31	–	146.6 ± 9.9	3.73	3.50	–	65.6 ± 4.2	279 ± 34	382 ± 16	280 ± 11	–	–	190 ± 6	Cn1c[n+]([C@@H]2O[C@H](COP(=O)(O)OP(=O)(O)OP(=O)(O)OP(=O)(O)OP(=O)(O)O)[C@@H](O)[C@H]2O)c2nc(N)[nH]c(=O)c21 [m^7Gp5]	–
